Laboratory results taken from patent US20050112573A1, “Method of detecting toxic substance” (priority 2001, published 2005).

System: yeast genes (level of expressed mRNA)
Test: DNA chip analysis of expressed mRNA of yeast genes after 2 h culture with a toxic chemical substance
Assay type: cell-based, Saccharomyces cerevisiae S288C
Conditions: for The level of expressed mRNA in the presence of chemical substance/ (ratio to absence of chemical substance): stress protein genes, DNA chip
Method: Yeast (Saccharomyces cerevtisiae S288C (α SUC2mal mel gap2 CUP1)) were cultured at 25° C. on YPD medium (yeast extract 1%, polypepton 2%, glucose 2%). One of toxic chemical substances was added to the cell at logarithmic growth phase, and the cell was further cultured for two hours. Cell was cultured without any chemical substance in the same condition, and was used as control. Concentrations of the chemical substances were defined to inhibit the growth of the yeast but not lead to death.
After the completion of cultivation, the culture was centrifuged to collect the cells. To the cells, sodium acetate buffer (50 mM sodium acetate, 10 mM EDTA, 1% SDS) was added, and the mixture was shaken at 65° C. for five minutes, followed by returning to room temperature, and obtaining the supernatant, which procedure was repeated two times. To the supernatant, ½ amount of a solution of phenol/chloroform was added, and the mixture was centrifuged to give a supernatant, which was added with an equal amount of chloroform, and the mixture was centrifuged to give a supernatant. To the supernatant, an equal amount of isopropanol containing 0.3 M sodium acetate was added, and the mixture was allowed to stand at room temperature for 30 minutes, after which the mixture was centrifuged to give a sediment of the whole RNAs. Seventy % ethanol was added to the sediment, and the mixture was again centrifuged to give a sediment, which was then dried and dissolved in water. mRNA was isolated from the whole RNAs as followings. In view of the fact that a poly A chain is attached to the 3′ terminus of mRNA, a polynucleotide having a poly T structure which was immobilized on the surface of latex beads was used to trap the mRNA, and then the mRNA was washed and eluted with spine column (Oligotex-dT30<Super>mRNA Purification Kit, Takara). Reverse transcription of the mRNA was conducted with a reverse transcriptase (Super Script II Reverse Transcriptase; catalogue No. 18064-014, GibcoBRL) using fluorescence-labeled nucleotides to give cDNAs that were introduced with Cy3-dUTP or Cy5-dUTP during the reverse transcription.
The labeled cDNAs were dissolved in TE buffer (10 mM Tris-HCl/1 mM EDTA, pH8.0), and the solution was dropped on the DNA chip containing the whole genes of yeast (DNA Chip Research Inc. Japan) so that the cDNAs were hybridized on the DNA chip at 65° C. for over 12 hours. The fluoresces intensity of the DNA chip was read with a scanner, and the ratio relative to the fluorescence intensity resulting from the absence of chemical substance was estimated as the following, which is shown in Tables 1 to 9: [formula]
In the Tables, “Intensity” indicated in the rightmost column is a value of the level of expressed mRNA of each gene in control cells as divided by the average level of the expressions of the whole genes.

COc1cc(CNC(=O)CCCCC=CC(C)C)ccc1O [(12), 8-methyl-N-vanillyl-6-nonenamide]
The level of expressed mRNA in the presence of chemical substance/The level of expressed mRNA in the absence of chemical substance (yeast gene YIL123W): 0.8
The level of expressed mRNA in the presence of chemical substance/The level of expressed mRNA in the absence of chemical substance (yeast gene YIL140W): 1.0
The level of expressed mRNA in the presence of chemical substance/The level of expressed mRNA in the absence of chemical substance (yeast gene YJL052W, two hours culture): 2.4
The level of expressed mRNA in the presence of chemical substance/ (in its absence), gene YJL070C (yeast gene YJL070C, ratio of DNA chip fluorescence intensity to that without chemical substance): 1.0
The level of expressed mRNA in the presence of chemical substance/The level of expressed mRNA in the absence of chemical substance (yeast gene YJL073W): 1.0
The level of expressed mRNA in the presence of chemical substance/The level of expressed mRNA in the absence of chemical substance (yeast gene YJL089W): 1.2
The level of expressed mRNA in the presence of chemical substance/ (ratio to absence), gene YJL096W (yeast gene YJL096W, mitochondria-located protein genes, 2 h culture with chemical): 1.0
The level of expressed mRNA in the presence of chemical substance/The level of expressed mRNA in the absence of chemical substance (yeast gene YJL116C): 1.1
The level of expressed mRNA in the presence of chemical substance/ (ratio to absence of chemical substance) (yeast gene YJL158C): 1.1
The level of expressed mRNA in the presence of chemical substance/ (in its absence), gene YJL167W (yeast gene YJL167W, ratio of DNA chip fluorescence intensity to that without chemical substance): 1.3
The level of expressed mRNA in the presence of chemical substance/ (ratio to absence), gene YJL180C (yeast gene YJL180C, mitochondria-located protein genes, 2 h culture with chemical): 0.8
The level of expressed mRNA in the presence of chemical substance/ (in its absence), gene YJL216C (yeast gene YJL216C, ratio of DNA chip fluorescence intensity to that without chemical substance): 1.0
The level of expressed mRNA in the presence of chemical substance/The level of expressed mRNA in the absence of chemical substance (yeast gene YJR004C): 0.8
The level of expressed mRNA in the presence of chemical substance/The level of expressed mRNA in the absence of chemical substance (yeast gene YJR086W): 0.8
The level of expressed mRNA in the presence of chemical substance/ (ratio to absence of chemical substance) (yeast gene YJR090C): 0.8
The level of expressed mRNA in the presence of chemical substance/The level of expressed mRNA in the absence of chemical substance (yeast gene YKL008C): 1.5
The level of expressed mRNA in the presence of chemical substance/The level of expressed mRNA in the absence of chemical substance (yeast gene YKL013C): 0.7
The level of expressed mRNA in the presence of chemical substance/The level of expressed mRNA in the absence of chemical substance (yeast gene YKL039W): 0.9
The level of expressed mRNA in the presence of chemical substance/The level of expressed mRNA in the absence of chemical substance (yeast gene YKL041W): 0.8
The level of expressed mRNA in the presence of chemical substance/The level of expressed mRNA in the absence of chemical substance (yeast gene YKL096W): 0.3
The level of expressed mRNA in the presence of chemical substance/ (ratio to absence of chemical substance) (yeast gene YKL164C): 0.8
The level of expressed mRNA in the presence of chemical substance/The level of expressed mRNA in the absence of chemical substance (yeast gene YKL165C): 2.4
The level of expressed mRNA in the presence of chemical substance/The level of expressed mRNA in the absence of chemical substance (yeast gene YKL193C): 0.9
The level of expressed mRNA in the presence of chemical substance/ (in its absence), gene YKR009C (yeast gene YKR009C, ratio of DNA chip fluorescence intensity to that without chemical substance): 1.0
The level of expressed mRNA in the presence of chemical substance/ (in its absence), gene YKR034W (yeast gene YKR034W, ratio of DNA chip fluorescence intensity to that without chemical substance): 0.7
The level of expressed mRNA in the presence of chemical substance/ (ratio to absence of chemical substance) (yeast gene YKR053C): 0.7
The level of expressed mRNA in the presence of chemical substance/ in its absence, gene YKR058W (yeast gene YKR058W, energy system protein genes, 2 h culture with the chemical, ratio to control without chemical): 0.9
The level of expressed mRNA in the presence of chemical substance/ (in its absence), gene YLR006C (yeast gene YLR006C, ratio of DNA chip fluorescence intensity to that without chemical substance): 0.7
The level of expressed mRNA in the presence of chemical substance/ (ratio to absence of chemical substance) (yeast gene YLR006C): 0.7
The level of expressed mRNA in the presence of chemical substance/The level of expressed mRNA in the absence of chemical substance (yeast gene YLR120C): 1.6
The level of expressed mRNA in the presence of chemical substance/The level of expressed mRNA in the absence of chemical substance (yeast gene YLR136C): 1.3
The level of expressed mRNA in the presence of chemical substance/The level of expressed mRNA in the absence of chemical substance (yeast gene YLR178C): 2.2
The level of expressed mRNA in the presence of chemical substance/The level of expressed mRNA in the absence of chemical substance (yeast gene YLR250W): 1.0
The level of expressed mRNA in the presence of chemical substance/ in its absence, gene YLR295C (yeast gene YLR295C, energy system protein genes, 2 h culture with the chemical, ratio to control without chemical): 0.5
The level of expressed mRNA in the presence of chemical substance/ (ratio to absence), gene YLR295C (yeast gene YLR295C, mitochondria-located protein genes, 2 h culture with chemical): 0.5
The level of expressed mRNA in the presence of chemical substance/The level of expressed mRNA in the absence of chemical substance (yeast gene YLR327C): 1.4
The level of expressed mRNA in the presence of chemical substance/ (in its absence), gene YLR351C (yeast gene YLR351C, ratio of DNA chip fluorescence intensity to that without chemical substance): 0.9
The level of expressed mRNA in the presence of chemical substance/The level of expressed mRNA in the absence of chemical substance (yeast gene YLR356W): 1.5
The level of expressed mRNA in the presence of chemical substance/The level of expressed mRNA in the absence of chemical substance (yeast gene YLR362W): 0.8
The level of expressed mRNA in the presence of chemical substance/ (in its absence), gene YLR375W (yeast gene YLR375W, ratio of DNA chip fluorescence intensity to that without chemical substance): 0.9
The level of expressed mRNA in the presence of chemical substance/The level of expressed mRNA in the absence of chemical substance (yeast gene YLR391W): 1.0
The level of expressed mRNA in the presence of chemical substance/The level of expressed mRNA in the absence of chemical substance (yeast gene YLR429W): 1.1
The level of expressed mRNA in the presence of chemical substance/ in its absence, gene YML129C (yeast gene YML129C, energy system protein genes, 2 h culture with the chemical, ratio to control without chemical): 0.8
The level of expressed mRNA in the presence of chemical substance/ (ratio to absence), gene YML129C (yeast gene YML129C, mitochondria-located protein genes, 2 h culture with chemical): 0.8
The level of expressed mRNA in the presence of chemical substance/The level of expressed mRNA in the absence of chemical substance (yeast gene YMR004W): 1.0
The level of expressed mRNA in the presence of chemical substance/ (ratio to absence), gene YMR023C (yeast gene YMR023C, mitochondria-located protein genes, 2 h culture with chemical): 0.7
The level of expressed mRNA in the presence of chemical substance/The level of expressed mRNA in the absence of chemical substance (yeast gene YMR094W): 0.9
The level of expressed mRNA in the presence of chemical substance/The level of expressed mRNA in the absence of chemical substance (yeast gene YMR104C): 1.0
The level of expressed mRNA in the presence of chemical substance/ (ratio to absence of chemical substance) (yeast gene YMR186W): 1.0
The level of expressed mRNA in the presence of chemical substance/The level of expressed mRNA in the absence of chemical substance (yeast gene YMR219W): 1.5
The level of expressed mRNA in the presence of chemical substance/The level of expressed mRNA in the absence of chemical substance (yeast gene YMR226C): 1.1
The level of expressed mRNA in the presence of chemical substance/ in its absence, gene YMR267W (yeast gene YMR267W, energy system protein genes, 2 h culture with the chemical, ratio to control without chemical): 0.8
The level of expressed mRNA in the presence of chemical substance/ (ratio to absence), gene YMR267W (yeast gene YMR267W, mitochondria-located protein genes, 2 h culture with chemical): 0.8
The level of expressed mRNA in the presence of chemical substance/ in its absence, gene YMR267W (yeast gene YMR267W, ratio of DNA chip fluorescence intensity to that without chemical substance): 0.8
The level of expressed mRNA in the presence of chemical substance/The level of expressed mRNA in the absence of chemical substance (yeast gene YMR275C): 0.7
The level of expressed mRNA in the presence of chemical substance/The level of expressed mRNA in the absence of chemical substance (yeast gene YMR276W): 1.2
The level of expressed mRNA in the presence of chemical substance/ (in its absence), gene YMR278W (yeast gene YMR278W, ratio of DNA chip fluorescence intensity to that without chemical substance): 1.0
The level of expressed mRNA in the presence of chemical substance/ (in its absence), gene YMR293C (yeast gene YMR293C, ratio of DNA chip fluorescence intensity to that without chemical substance): 0.9
